Laboratory results: patent US4873232A, “Novel use for carbamoyl benzoates” (Syntex, priority 1986, dated 1989)
Where two headings read alike, the source gives them in different places.

How the values were obtained:
[1] = system: Experimental Allergic Encephalomyelitis in Rat; experiment: Experimental Allergic Encephalomyelitis in rat; type: in vivo, rat (female LEW/Crl BR); details: for Body Wt.: day 17
From the text: 3. Experimental allergic encephalomyelitis in the rat. […] A mixture of syngeneic spinal cord homogenate in Freund's Complete Adjuvant injected subcutaneously into the rat induces an […] response directed against the myelin covering the nerves of the central nervous system. […] These symptoms result from attack of immune cells on the nerves with subsequent destruction and loss of ability to transmit the nervous impulses necessary for controlling muscle function. […] This is consistent with the general immuno-suppressive effects of this drug. Corticosteroid treatment also prevents the appearance of paralytic symptoms, but the dose of corticosteroid required is such that the corticosteroid itself causes weight loss greater than that produced by the disease alone. In contrast to their action in Adjuvant-inducted Arthritis in the rat, aspirin-like drugs are completely ineffective in preventing the symptoms and weight loss of experimental allergic encephalomyelitis.
Experimental Allergic Encephalomyelitis in Rat
Method: Test for Inhibition of Experimental Allergic Encephalomyelitis Induced in Rats
Female LEW/Crl BR rats weighing 125-135 g were randomly assigned to treatment groups of ten animals. Experimental allergic encephalomyelitis was induced by injecting into the right hind paw of each animal 0.1 ml of an emulsion containing 15 mg (wet weight) of syngeneic spinal cord tissue, 0.06 ml of Freund's Incomplete Adjuvant (Difco), 0.04 ml of sterile 0.9% saline and 0.2 mg of heat-killed, dried Mycobacterium butyricum (Difco). Test materials prepared as solutions or suspensions in aqueous carboxymethyl cellulose vehicle were administered orally each day for 16 days, starting on the day of injection. Animals were individually identified and weighed on day one, and again on day 17.

[2] = Ability to cause gastro-intestinal erosion in rats; design: species or system rat (male Lai:COX (SD)); details: rat, in vivo
Procedure: Method: Test for Ability to Cause Gastro-Intestinal Erosion in Rats
Male Lai: COX (SD) rats weighing 200-250 g were acclimated for one week under standard laboratory conditions. Each animal was individually identified and body weights were determined on the first day of the test and again at autopsy. The test materials, suspended in aqueous carboxymethyl cellulose vehicle, were administered orally once daily in a volume of 1.0 ml per 100 g body weight for seven consecutive days. Food was withdrawn from the animals following the last dose and the animals were sacrificed 24 hours later. At necropsy, the stomach and intestines were removed and observed for lesions. […] The highest test dose level producing no detectable lesions is reported.

[3] = system: Adjuvant-induced Arthritis in Rat; experiment: Adjuvant-induced Arthritis in rat; type: in vivo, rat (female Hla:(SD) BR); details: oral
[4] = system: Carrageenan-induced paw edema in the rat; experiment: Carrageenan-induced paw edema in rat; type: in vivo, rat (female albino, Sim:(SD)fbr); details: one hour prior to carrageenan
From the text: 1. Carrageenan-induced paw edema in the rat. […] A solution of carrageenan injected into the foot pad of a rat causes reddening, swelling and pain which is maximal three to six hours after administration and then resolves. […] Immuno-suppressive agents are not effective under these circumstances.
Carrageenan-induced Paw Edema in Rat
Method: Test for Determining Anti-Inflammatory Activity Utilizing Carrageenan-Induced Paw Inflammation in Rats
The method used was basically that of Winter, et al. (See, Winter, C.A., Risley, E.A., and Nuss, G.W.: Carrageenan-induced edema in hind paw of the rat as an assay for anti-inflammatory drugs, Proc. Soc. Exp. Biol. Med. 111:544-547, 1962.) Female albino rats (Sim: (SD)fbr) weighing 80-90 g received the test material p.o. in 1 ml aqueous vehicle at hour zero (0 hr). One hour later (hr 1), 0.05 ml of a 1% solution (in aqueous 0.9% NaCl) or carrageenan was injected into the right hind paw to inflame the paw. The rats were sacrificed at hour 4, at which time both hind paws were removed and individually weighed. The percent increase in the weight of the inflamed paw over that of the opposite non-inflamed paw was calculated.

[5] = system: Gastro-Intestinal Erosion in Rats; details: background, in words; cited from earlier work
[6] = system: Experimental Allergic Encephalomyelitis in Rat; details: daily treatment, background; cited from earlier work
[7] = system: Adjuvant-induced Arthritis in Rat; details: daily administration of appropriate doses, background; cited from earlier work
[8] = oral 10 mg/kg daily for 16 days
[9] = oral 50 mg/kg daily for 16 days
[10] = oral dose 10 mg/kg, * = not significant
[11] = oral dose 30 mg/kg, * = not significant
[12] = oral dose 100 mg/kg, * = not significant
[13] = oral once daily for seven days, read-out: Minimum Dose causing G.I. Erosions

Cc1cccc(N)c1C(=O)O [2-Amino-6-methylbenzoic acid, 2-amino-6-methyl-benzoic acid, reference compound]
Body Wt. ([1]; oral 2 mg/kg daily for 16 days): 153 ± 5.2 gm | Body Wt. [1, 8]: 145 ± 4.1 gm | Body Wt. [1, 9]: 141 ± 4.0 gm | NOAEL at 168 h ([2]; po): > 250 mg/kg/day | Inhibition of Adjuvant Arthritis ([3]; at 50 mg/kg, n.s.): 0% | Inhibition of Hind Paw Weight Increase [4, 10]: 5 | Inhibition of Hind Paw Weight Increase [4, 11]: 7 | Inhibition of Hind Paw Weight Increase [4, 12]: 0

O=C(Nc1ccccc1C(=O)O)OCc1ccccc1 [2-Benzyloxycarbonyl-aminobenzoic acid, 2-benzyloxycarbonylaminobenzoic acid]
Body Wt. ([1]; oral 2 mg/kg daily for 16 days): 131 ± 3.6 gm | Body Wt. [1, 8]: 141 ± 6.3 gm

CCOC(=O)Nc1ccccc1C(=O)O [2-Ethoxycarbonyl-aminobenzoic acid, 2-ethoxycarbonylaminobenzoic acid]
Body Wt. ([1]; oral 2 mg/kg daily for 16 days): 150 ± 4.2 gm | Body Wt. [1, 8]: 162 ± 3.4 gm | Body Wt. [1, 9]: 151 ± 4.4 gm

CCOC(=O)Nc1cccc(C)c1C(=O)O [2-Ethoxycarbonylamino-6-methylbenzoic acid]
Body Wt. ([1]; oral 5 mg/kg daily for 16 days): 164 ± 4.9 gm | Body Wt. [1, 8]: 155 ± 3.7 gm | Body Wt. ([1]; oral 25 mg/kg daily for 16 days): 154 ± 6.0 gm | NOAEL at 168 h [2, 13]: > 100 mg/kg/day | Inhibition of Adjuvant Arthritis ([3]; at 50 mg/kg, n.s.): 30% | Inhibition of Hind Paw Weight Increase [4, 10]: 9 | Inhibition of Hind Paw Weight Increase [4, 11]: 13 | Inhibition of Hind Paw Weight Increase [4, 12]: 12

COc1cc(NC(=O)OCc2ccccc2)c(C(=O)O)cc1OC [2-benzyloxycarbonylamino-4,5-dimethoxybenzoic acid]
Body Wt. ([1]; oral 2 mg/kg daily for 16 days): 142 ± 5.3 gm | Body Wt. [1, 8]: 144 ± 3.9 gm

Cc1cccc(NC(=O)OCc2ccccc2)c1C(=O)O [2-benzyloxycarbonylamino-6-methylbenzoic acid]
Body Wt. [1, 8]: 146 ± 3.6 gm | Inhibition of Hind Paw Weight Increase [4, 12]: 10

CCOC(=O)Nc1cc(OC)c(OC)cc1C(=O)O [2-ethoxycarbonylamino-4,5-dimethoxybenzoic acid]
Body Wt. ([1]; oral 2 mg/kg daily for 16 days): 157 ± 4.0 gm | Body Wt. [1, 8]: 137 ± 5.7 gm | Body Wt. [1, 9]: 154 ± 5.8 gm | NOAEL at 168 h [2, 13]: > 100 mg/kg/day | Inhibition of Adjuvant Arthritis ([3]; at 50 mg/kg, n.s.): 0%

Cc1cccc(NC(=O)OCC(C)C)c1C(=O)O [2-isobutoxycarbonylamino-6-methylbenzoic acid]
NOAEL at 168 h [2, 13]: > 100 mg/kg/day | Inhibition of Adjuvant Arthritis ([3]; at 50 mg/kg, n.s.): 0% | Inhibition of Hind Paw Weight Increase [4, 12]: 23

C[C@@H]1C[C@H]2[C@@H]3CCC4=CC(=O)C=C[C@]4(C)[C@@]3(F)[C@@H](O)C[C@]2(C)[C@@]1(O)C(=O)CO [Dexamethasone, reference compound]
Body Wt. ([1]; oral 0.25 mg/kg daily for 16 days): 130 ± 0.4 gm | % Animals With Paralysis ([1]; oral 0.25 mg/kg daily for 16 days, observed days 12-17): 0% | Inhibition of Hind Paw Weight Increase ([4]; oral dose 0.1 mg/kg): 71

O=C(O)c1ccccc1Nc1cccc(C(F)(F)F)c1 [Flufenamic acid, reference compound]
Body Wt. ([1]; oral 30 mg/kg daily for 16 days): 135 ± 2.4 gm | Body Wt. ([1]; oral 100 mg/kg daily for 16 days): 128 ± 2.1 gm | NOAEL at 168 h ([2]; po): 35 mg/kg/day | Inhibition of Adjuvant Arthritis ([3]; at 35 mg/kg): 80% | gastro-intestinal effects associated with aspirin-like drugs [5]: gastro-intestinal (ulcerogenic) effects | Inhibition of Hind Paw Weight Increase [4, 10]: 35 | Inhibition of Hind Paw Weight Increase [4, 12]: 52

O=P1(N(CCCl)CCCl)NCCCO1 (stereo not drawn) [cyclophosphamide]
effect on weight loss and paralysis in experimental allergic encephalomyelitis [6]: gives protection from the weight loss and paralysis | control of manifestations of Adjuvant-induced arthritis [7]: effectively controlled
